Measurements published in patent publication US10004701B2, “Methods and compositions for treating infection” (UNIVERSITY OF ROCHESTER, priority 2012, dated 2018).
Structures can show the parent of a compound that is named as a salt. Where two headings read alike, the source gives them in different places.

Legend:
Test in all cases: AK assay 384-well format, Prestwick library screening
E. cloacae = format: cell-based, Enterobacter cloacae; settings: for fold induction at 50 µM: Enterobacter cloacae, 3 h
E. coli = format: cell-based, Escherichia coli; settings: for fold induction at 50 µM: Escherichia coli, 3 h
E. faecium = format: cell-based, Enterococcus faecium; settings: for fold induction at 50 µM: Enterococcus faecium, 3 h
[1] = system: S. aureus strain USA300-0114; format: cell-based, Staphylococcus aureus; settings: for fold induction at 50 µM: Staphylococcus aureus, USA300, 3 h
P. aeruginosa = format: cell-based, Pseudomonas aeruginosa; settings: for fold induction at 50 µM: Pseudomonas aeruginosa, 3 h
K. pneumoniae = format: cell-based, Klebsiella pneumoniae; settings: for fold induction at 50 µM: Klebsiella pneumoniae, 3 h
[2] = system: A. baumannii strain 98-37-09; format: cell-based, Acinetobacter baumannii; settings: for fold induction at 50 µM: Acinetobacter baumannii, 983709, 3 h
[3] = planktonic E. cloacae, 50 μM final drug concentration, […]
[4] = planktonic E. coli, 50 μM final drug concentration, […]
[5] = planktonic E. faecium, 50 μM final drug concentration, […]
[6] = planktonic S. aureus, 50 μM final drug concentration, […]
[7] = planktonic P. aeruginosa, 50 μM final drug concentration, […]
[8] = planktonic K. pneumoniae, 50 μM final drug concentration, […]
[9] = planktonic A. baumannii, 50 μM final drug concentration, […]
[10] = 50 μM final drug concentration, 384-well format, cutoff for positive-scoring molecules 3-fold increase, read-out: AK-based Prestwick Library Screening Results, E. cloacae (increase in extracellular AK activity)
[11] = 50 μM final drug concentration, 384-well format, cutoff for positive-scoring molecules 3-fold increase, read-out: AK-based Prestwick Library Screening Results, E. coli (increase in extracellular AK activity)
[12] = 50 μM final drug concentration, 384-well format, cutoff for positive-scoring molecules 3-fold increase, read-out: AK-based Prestwick Library Screening Results, E. faecium (increase in extracellular AK activity)
[13] = 50 μM final drug concentration, 384-well format, cutoff for positive-scoring molecules 3-fold increase, read-out: AK-based Prestwick Library Screening Results, S. aureus (increase in extracellular AK activity)
[14] = 50 μM final drug concentration, 384-well format, cutoff for positive-scoring molecules 3-fold increase, read-out: AK-based Prestwick Library Screening Results, P. aeruginosa (increase in extracellular AK activity)
[15] = 50 μM final drug concentration, 384-well format, cutoff for positive-scoring molecules 3-fold increase, read-out: AK-based Prestwick Library Screening Results, K. pneumoniae (increase in extracellular AK activity)
[16] = 50 μM final drug concentration, 384-well format, cutoff for positive-scoring molecules 3-fold increase, read-out: AK-based Prestwick Library Screening Results, A. baumannii (increase in extracellular AK activity)
[17] = 50 μM final drug concentration, planktonic, cutoff for positive-scoring molecules 3-fold increase, read-out: AK-based Prestwick Library Screening Results, E. cloacae (fold increase in extracellular AK activity)
[18] = 50 μM final drug concentration, planktonic, cutoff for positive-scoring molecules 3-fold increase, read-out: AK-based Prestwick Library Screening Results, E. coli (fold increase in extracellular AK activity)
[19] = 50 μM final drug concentration, planktonic, cutoff for positive-scoring molecules 3-fold increase, read-out: AK-based Prestwick Library Screening Results, E. faecium (fold increase in extracellular AK activity)
[20] = 50 μM final drug concentration, planktonic, cutoff for positive-scoring molecules 3-fold increase, read-out: AK-based Prestwick Library Screening Results, S. aureus (fold increase in extracellular AK activity)
[21] = 50 μM final drug concentration, planktonic, cutoff for positive-scoring molecules 3-fold increase, read-out: AK-based Prestwick Library Screening Results, P. aeruginosa (fold increase in extracellular AK activity)
[22] = 50 μM final drug concentration, planktonic, cutoff for positive-scoring molecules 3-fold increase, read-out: AK-based Prestwick Library Screening Results, K. pneumoniae (fold increase in extracellular AK activity)
[23] = 50 μM final drug concentration, planktonic, cutoff for positive-scoring molecules 3-fold increase, read-out: AK-based Prestwick Library Screening Results, A. baumannii (fold increase in extracellular AK activity)
[24] = 50 μM final drug concentration, planktonic, cutoff for positive 3-fold increase, read-out: AK-based Prestwick Library Screening Results, E. cloacae (fold increase in extracellular AK activity)
[25] = 50 μM final drug concentration, planktonic, cutoff for positive 3-fold increase, read-out: AK-based Prestwick Library Screening Results, E. coli (fold increase in extracellular AK activity)
[26] = 50 μM final drug concentration, planktonic, cutoff for positive 3-fold increase, read-out: AK-based Prestwick Library Screening Results, E. faecium (fold increase in extracellular AK activity)
[27] = 50 μM final drug concentration, planktonic, cutoff for positive 3-fold increase, read-out: AK-based Prestwick Library Screening Results, S. aureus (fold increase in extracellular AK activity)
[28] = 50 μM final drug concentration, planktonic, cutoff for positive 3-fold increase, read-out: AK-based Prestwick Library Screening Results, P. aeruginosa (fold increase in extracellular AK activity)
[29] = 50 μM final drug concentration, planktonic, cutoff for positive 3-fold increase, read-out: AK-based Prestwick Library Screening Results, K. pneumoniae (fold increase in extracellular AK activity)
[30] = 50 μM final drug concentration, planktonic, cutoff for positive 3-fold increase, read-out: AK-based Prestwick Library Screening Results, A. baumannii (fold increase in extracellular AK activity)
[31] = 50 μM final drug concentration, planktonic, cutoff for positive 3-fold increase

## CNC(=O)Oc1ccc2c(c1)[C@]1(C)CCN(C)[C@@H]1N2C.CNC(=O)Oc1ccc2c(c1)[C@]1(C)CCN(C)[C@@H]1N2C.O=S(=O)(O)O [Eserine sulfate, physostigmine sulfate]
E. cloacae; [3]
  AK-based Prestwick Library Screening Results, E. cloacae (increase in extracellular AK activity): 0.7
E. coli; [4]
  AK-based Prestwick Library Screening Results, E. coli (increase in extracellular AK activity): 0.7
E. faecium; [5]
  AK-based Prestwick Library Screening Results, E. faecium (increase in extracellular AK activity): 0.9
[1]; [6]
  AK-based Prestwick Library Screening Results, S. aureus (increase in extracellular AK activity): 0.4
P. aeruginosa; [7]
  AK-based Prestwick Library Screening Results, P. aeruginosa (increase in extracellular AK activity): 0.6
K. pneumoniae; [8]
  AK-based Prestwick Library Screening Results, K. pneumoniae (increase in extracellular AK activity): 0.5
[2]; [9]
  AK-based Prestwick Library Screening Results, A. baumannii (increase in extracellular AK activity): 0.5

## O=C(Nc1ccc([N+](=O)[O-])cc1Cl)c1cc(Cl)ccc1O [Niclosamide]
E. cloacae; [10]
  fold induction at 50 µM: 0.5
E. coli; [11]
  fold induction at 50 µM: 0.1
E. faecium; [12]
  fold induction at 50 µM: 0.1
[1]; [13]
  fold induction at 50 µM: 0.4
P. aeruginosa; [14]
  fold induction at 50 µM: 0.1
K. pneumoniae; [15]
  fold induction at 50 µM: 0.1
[2]; [16]
  fold induction at 50 µM: 0.2

## COc1ccc(C[C@H]2NC[C@H](O)[C@H]2OC(C)=O)cc1 [Anisomycin]
E. cloacae; [3]
  AK-based Prestwick Library Screening Results, E. cloacae (increase in extracellular AK activity): 0.7
E. coli; [4]
  AK-based Prestwick Library Screening Results, E. coli (increase in extracellular AK activity): 0.7
E. faecium; [5]
  AK-based Prestwick Library Screening Results, E. faecium (increase in extracellular AK activity): 1.0
[1]; [6]
  AK-based Prestwick Library Screening Results, S. aureus (increase in extracellular AK activity): 0.7
P. aeruginosa; [7]
  AK-based Prestwick Library Screening Results, P. aeruginosa (increase in extracellular AK activity): 0.7
K. pneumoniae; [8]
  AK-based Prestwick Library Screening Results, K. pneumoniae (increase in extracellular AK activity): 0.5
[2]; [9]
  AK-based Prestwick Library Screening Results, A. baumannii (increase in extracellular AK activity): 0.7

## C[C@]12CC[C@@H](O)C[C@H]1CC[C@@H]1[C@@H]2CC[C@]2(C)C(=O)CC[C@@H]12
E. cloacae
  AK-based Prestwick Library Screening Results, E. cloacae (fold increase in extracellular AK activity): 1.9
E. coli
  AK-based Prestwick Library Screening Results, E. coli (fold increase in extracellular AK activity): 1.2
E. faecium
  AK-based Prestwick Library Screening Results, E. faecium (fold increase in extracellular AK activity): 1.0
[1]
  AK-based Prestwick Library Screening Results, S. aureus (fold increase in extracellular AK activity): 1.0
P. aeruginosa
  AK-based Prestwick Library Screening Results, P. aeruginosa (fold increase in extracellular AK activity): 1.1
K. pneumoniae
  AK-based Prestwick Library Screening Results, K. pneumoniae (fold increase in extracellular AK activity): 0.9
[2]
  AK-based Prestwick Library Screening Results, A. baumannii (fold increase in extracellular AK activity): 0.9

## Oc1ccc(OCc2ccccc2)cc1 [Monobenzone]
E. cloacae; [17]
  fold induction at 50 µM: 1.4
E. coli; [18]
  fold induction at 50 µM: 0.7
E. faecium; [19]
  fold induction at 50 µM: 0.6
[1]; [20]
  fold induction at 50 µM: 0.6
P. aeruginosa; [21]
  fold induction at 50 µM: 0.7
K. pneumoniae; [22]
  fold induction at 50 µM: 0.5
[2]; [23]
  fold induction at 50 µM: 0.5

## C=CC[N@@+]12CC[C@@]34c5ccccc5N5/C=C6/[C@H]7C[C@H]8[C@@]9(CC[N@@+]8(CC=C)C/C7=C/CO)c7ccccc7N(/C=C(/[C@@H](C[C@@H]31)/C(=C\CO)C2)[C@H]54)[C@@H]69.[Cl-].[Cl-] [Alcuronium chloride]
E. cloacae; [3]
  AK-based Prestwick library screening result, E. cloacae (fold increase in extracellular AK activity): 2.2
E. coli; [4]
  AK-based Prestwick library screening result, E. coli (fold increase in extracellular AK activity): 1.4
E. faecium; [5]
  AK-based Prestwick library screening result, E. faecium (fold increase in extracellular AK activity): 1.0
[1]; [6]
  AK-based Prestwick library screening result, S. aureus (fold increase in extracellular AK activity): 1.2
P. aeruginosa; [7]
  AK-based Prestwick library screening result, P. aeruginosa (fold increase in extracellular AK activity): 1.0
K. pneumoniae; [8]
  AK-based Prestwick library screening result, K. pneumoniae (fold increase in extracellular AK activity): 1.0
[2]; [9]
  AK-based Prestwick library screening result, A. baumannii (fold increase in extracellular AK activity): 1.4

## CCCN(CCC)S(=O)(=O)c1ccc(C(=O)O)cc1 [Probenecid]
E. cloacae; [24]
  fold induction at 50 µM: 1.4
E. coli; [25]
  fold induction at 50 µM: 1.4
E. faecium; [26]
  fold induction at 50 µM: 1
[1]; [27]
  fold induction at 50 µM: 1
P. aeruginosa; [28]
  fold induction at 50 µM: 1.2
K. pneumoniae; [29]
  fold induction at 50 µM: 1.1
[2]; [30]
  fold induction at 50 µM: 1.3

## COc1cc2nc(N3CCN(C(=O)C4CCCO4)CC3)nc(N)c2cc1OC (stereo not drawn) [Terazosin hydrochloride]
E. cloacae; [17]
  fold induction at 50 µM: 1.2
E. coli; [18]
  fold induction at 50 µM: 0.8
E. faecium; [19]
  fold induction at 50 µM: 0.8
[1]; [20]
  fold induction at 50 µM: 0.8
P. aeruginosa; [21]
  fold induction at 50 µM: 0.6
K. pneumoniae; [22]
  fold induction at 50 µM: 0.7
[2]; [23]
  fold induction at 50 µM: 0.7

## CC(=O)NC1CCSC1=O (racemic) [N-Acetyl-DL-homocysteine Thiolactone]
E. cloacae; [31]
  AK-based Prestwick Library Screening Results, E. cloacae (fold increase in extracellular AK activity): 0.7
E. coli; [31]
  AK-based Prestwick Library Screening Results, E. coli (fold increase in extracellular AK activity): 0.5
E. faecium; [31]
  AK-based Prestwick Library Screening Results, E. faecium (fold increase in extracellular AK activity): 0.8
[1]; [31]
  AK-based Prestwick Library Screening Results, S. aureus (fold increase in extracellular AK activity): 0.4
P. aeruginosa; [31]
  AK-based Prestwick Library Screening Results, P. aeruginosa (fold increase in extracellular AK activity): 0.3
K. pneumoniae; [31]
  AK-based Prestwick Library Screening Results, K. pneumoniae (fold increase in extracellular AK activity): 0.4
[2]; [31]
  AK-based Prestwick Library Screening Results, A. baumannii (fold increase in extracellular AK activity): 0.4

## O=C(N[C@H](CO)[C@H](O)c1ccc([N+](=O)[O-])cc1)C(Cl)Cl [Chloramphenicol]
E. cloacae; [10]
  fold induction at 50 µM: 1.5
E. coli; [11]
  fold induction at 50 µM: 0.7
E. faecium; [12]
  fold induction at 50 µM: 0.8
[1]; [13]
  fold induction at 50 µM: 9.7
P. aeruginosa; [14]
  fold induction at 50 µM: 0.8
K. pneumoniae; [15]
  fold induction at 50 µM: 0.2
[2]; [16]
  fold induction at 50 µM: 1

## COc1cc(-c2ccc(N=Nc3ccc4c(S(=O)(=O)[O-])cc(S(=O)(=O)[O-])c(N)c4c3O)c(OC)c2)ccc1N=Nc1ccc2c(S(=O)(=O)[O-])cc(S(=O)(=O)[O-])c(N)c2c1O.[Na+].[Na+].[Na+].[Na+] [Chicago sky blue 6B]
E. cloacae; planktonic E. cloacae, 50 μM final drug concentration, cutoff for positive-scoring molecules 3-fold increase
  AK-based Prestwick Library Screening Results, E. cloacae (increase in extracellular AK activity): 0.9
E. coli; planktonic E. coli, 50 μM final drug concentration, cutoff for positive-scoring molecules 3-fold increase
  AK-based Prestwick Library Screening Results, E. coli (increase in extracellular AK activity): 0.5
E. faecium; planktonic E. faecium, 50 μM final drug concentration, cutoff for positive-scoring molecules 3-fold increase
  AK-based Prestwick Library Screening Results, E. faecium (increase in extracellular AK activity): 0.5
[1]; planktonic S. aureus, 50 μM final drug concentration, cutoff for positive-scoring molecules 3-fold increase
  AK-based Prestwick Library Screening Results, S. aureus (increase in extracellular AK activity): 0.0
P. aeruginosa; planktonic P. aeruginosa, 50 μM final drug concentration, cutoff for positive-scoring molecules 3-fold increase
  AK-based Prestwick Library Screening Results, P. aeruginosa (increase in extracellular AK activity): 0.4
K. pneumoniae; planktonic K. pneumoniae, 50 μM final drug concentration, cutoff for positive-scoring molecules 3-fold increase
  AK-based Prestwick Library Screening Results, K. pneumoniae (increase in extracellular AK activity): 0.3
[2]; planktonic A. baumannii, 50 μM final drug concentration, cutoff for positive-scoring molecules 3-fold increase
  AK-based Prestwick Library Screening Results, A. baumannii (increase in extracellular AK activity): 0.4

## O=C1c2ccccc2C(=O)C1c1ccccc1 [Phenindione]
E. cloacae; [24]
  fold induction at 50 µM: 1.3
E. coli; [25]
  fold induction at 50 µM: 1.2
E. faecium; [26]
  fold induction at 50 µM: 0.9
[1]; [27]
  fold induction at 50 µM: 1.1
P. aeruginosa; [28]
  fold induction at 50 µM: 0.9
K. pneumoniae; [29]
  fold induction at 50 µM: 1.1
[2]; [30]
  fold induction at 50 µM: 1.1
